Assay results as given in patent US9783536B2, “Nitrogen-containing heterocyclic compound or salt thereof” (FUJIFILM Corporation, priority 2013, dated 2017).
Counter-ions that a name gives are not always drawn. Like-named read-outs stand apart in the source and are kept apart here.

Key:
[1] = target: T1, human PI3Kα protein (Homo sapiens, UniProt P42336); assay: PI3Kα enzyme assay (ADP-Glo); assay type: biochemical; details: read-out: PI3Kα enzyme inhibitory activity
T1 construct: purchased Carna Biosciences, Inc; host or cells: baculovirus expression system
T1 sequence (P42336 whole entry): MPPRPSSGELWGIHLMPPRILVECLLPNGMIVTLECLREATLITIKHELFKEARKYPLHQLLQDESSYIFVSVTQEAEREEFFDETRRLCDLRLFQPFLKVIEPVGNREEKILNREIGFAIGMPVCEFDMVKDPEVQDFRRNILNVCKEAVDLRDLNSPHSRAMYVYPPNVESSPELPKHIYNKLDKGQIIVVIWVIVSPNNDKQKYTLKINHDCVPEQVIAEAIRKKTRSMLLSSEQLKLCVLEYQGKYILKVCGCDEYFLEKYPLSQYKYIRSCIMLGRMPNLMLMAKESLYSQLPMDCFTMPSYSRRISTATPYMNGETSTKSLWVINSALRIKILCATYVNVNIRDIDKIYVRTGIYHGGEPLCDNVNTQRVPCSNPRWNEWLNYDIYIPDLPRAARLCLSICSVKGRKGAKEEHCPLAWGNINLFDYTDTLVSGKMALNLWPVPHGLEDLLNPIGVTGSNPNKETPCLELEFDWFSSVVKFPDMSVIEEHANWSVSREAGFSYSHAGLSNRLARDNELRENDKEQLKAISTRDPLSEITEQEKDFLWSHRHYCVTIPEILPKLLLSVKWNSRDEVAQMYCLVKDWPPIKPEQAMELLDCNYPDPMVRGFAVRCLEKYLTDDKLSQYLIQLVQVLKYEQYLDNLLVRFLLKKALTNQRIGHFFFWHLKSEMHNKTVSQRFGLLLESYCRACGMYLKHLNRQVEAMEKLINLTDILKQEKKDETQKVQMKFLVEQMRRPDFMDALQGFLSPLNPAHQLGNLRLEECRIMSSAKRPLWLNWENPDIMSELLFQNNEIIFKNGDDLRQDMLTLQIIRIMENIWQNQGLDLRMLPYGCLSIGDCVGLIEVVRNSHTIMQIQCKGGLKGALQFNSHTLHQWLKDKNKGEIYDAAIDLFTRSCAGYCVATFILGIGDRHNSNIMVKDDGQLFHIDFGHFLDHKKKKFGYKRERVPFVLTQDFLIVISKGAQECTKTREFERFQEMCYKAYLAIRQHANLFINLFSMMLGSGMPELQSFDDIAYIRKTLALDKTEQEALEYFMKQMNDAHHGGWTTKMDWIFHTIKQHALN
T1 sequence (P27986 whole entry partner): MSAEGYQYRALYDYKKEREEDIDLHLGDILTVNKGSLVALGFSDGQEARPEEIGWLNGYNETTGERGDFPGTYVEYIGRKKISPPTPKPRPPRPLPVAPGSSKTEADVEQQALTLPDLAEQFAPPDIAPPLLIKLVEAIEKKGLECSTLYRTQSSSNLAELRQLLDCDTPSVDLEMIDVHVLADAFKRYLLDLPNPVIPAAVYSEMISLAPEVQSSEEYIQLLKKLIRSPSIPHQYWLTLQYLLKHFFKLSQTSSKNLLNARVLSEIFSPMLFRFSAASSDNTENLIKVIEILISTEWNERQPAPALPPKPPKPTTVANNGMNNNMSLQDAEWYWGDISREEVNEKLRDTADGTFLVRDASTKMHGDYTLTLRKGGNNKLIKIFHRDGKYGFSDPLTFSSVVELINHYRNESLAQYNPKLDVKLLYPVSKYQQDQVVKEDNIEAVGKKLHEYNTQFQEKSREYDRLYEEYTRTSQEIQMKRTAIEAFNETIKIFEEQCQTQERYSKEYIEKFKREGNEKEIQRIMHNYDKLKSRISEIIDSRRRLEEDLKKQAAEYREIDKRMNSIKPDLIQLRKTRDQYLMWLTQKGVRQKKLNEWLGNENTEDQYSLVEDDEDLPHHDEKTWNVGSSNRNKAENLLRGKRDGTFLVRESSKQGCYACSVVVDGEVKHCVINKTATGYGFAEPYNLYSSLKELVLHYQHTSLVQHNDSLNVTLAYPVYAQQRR
Summary of the method: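 Biotinylated human PI3Kα (baculovirus-expressed, 4.5 nmol/L) pre-incubated 15 min with compound in Tris-HCl pH 7.5, MgCl2, BSA; reaction 60 min at 25° C with 50 μmol/L PIP2 and 100 μmol/L ATP final. ADP quantified by ADP-Glo luminescence; IC50 calculated.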

[2] = target: T2, GST fusion human ERK2 protein (Homo sapiens, UniProt P28482); assay: ERK2 enzyme assay (2); assay type: biochemical; details: read-out: ERK2 enzyme inhibitory activity (2)
T2 construct: purchased Carna Biosciences, Inc; host or cells: E. coli expression system
T2 sequence (P28482 whole entry, the tested form may be a part): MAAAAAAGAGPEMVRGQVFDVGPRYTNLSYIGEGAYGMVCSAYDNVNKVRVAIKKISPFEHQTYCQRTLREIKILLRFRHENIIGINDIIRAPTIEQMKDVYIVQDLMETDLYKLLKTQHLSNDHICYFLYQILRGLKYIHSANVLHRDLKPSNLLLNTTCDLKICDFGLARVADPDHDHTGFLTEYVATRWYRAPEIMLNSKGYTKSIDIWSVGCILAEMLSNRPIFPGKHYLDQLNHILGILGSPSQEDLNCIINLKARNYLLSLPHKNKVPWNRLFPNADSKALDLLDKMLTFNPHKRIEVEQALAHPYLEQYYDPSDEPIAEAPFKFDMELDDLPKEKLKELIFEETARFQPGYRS
Summary of the method: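 GST-tagged human ERK2 expressed in E. coli (1.25 nmol/L) was preincubated with compound for 15 min at room temperature in pH 7.5 Hepes buffer with MgCl2, DTT and Brij35. Reaction with FL-Peptide 8 (final 4.25 μmol/L) and ATP (final 1 mmol/L) ran 120 min at 25 °C; EDTA stopped it, and phosphorylated peptide was quantified by mobility-shift separation to derive IC50.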

SMILES | IC50 [1] | IC50 ([2]; ERK2 enzyme assay (2)) | IC50 [2]
CC(C)c1cnnc(Nc2ccc3ncc(NC4CNC4)cc3n2)c1 [Example 0905, N^7-(azetidin-3-yl)-N^2-(5-isopropylpyridazin-3-yl)-1,5-naphthyridine-2,7-diamine] | 1000 to 10000 nM | – | 1000 to 10000 nM
CC(C)c1cnnc(Nc2ccc3ncc(-c4cn(C)nc4CN(C)c4cccnc4)cc3n2)c1 [Example 0808] | 1000 to 10000 nM | < 1000 nM | –
Cc1ccc(-c2cnc3ccc(Nc4cc(C(C)C)cnn4)nc3c2)cn1 [Example 0597] | 1000 to 10000 nM | < 1000 nM | –
CC(C)c1cnnc(Nc2ccc3ncc(N4CCS(=O)(=O)CC4)cc3n2)c1 [Example 0857] | 1000 to 10000 nM | < 1000 nM | –
Cc1nc2ccc(Nc3cc(C(C)C)cnn3)nc2cc1-c1cn(C)nc1C [Example 0851, 7-(1,3-Dimethyl-1H-pyrazol-4-yl)-N-(5-isopropylpyridazin-3-yl)-6-methyl-1,5-naphthyridine-2-amine] | 1000 to 10000 nM | < 1000 nM | –
CC(C)c1cnnc(Nc2ccc3ncc(-c4cn(C)nc4CN4CCN(c5cccnc5)CC4)cc3n2)c1 [Example 0910] | < 1000 nM | – | < 1000 nM
COc1ccc(-c2nn(C)cc2-c2cnc3ccc(Nc4cc(C(C)C)cnn4)nc3c2)cc1 [Example 0584] | < 1000 nM | < 1000 nM | –
CC(C)c1cnnc(Nc2ccc3ncc(-c4cn(C)nc4-c4ccc(N)nc4)cc3n2)c1 [Example 0461, 7-(3-(6-aminopyridin-3-yl)-1-methyl-1H-pyrazol-4-yl)-N-(5-isopropylpyridazin-3-yl)-1,5-naphthyridine-2-amine] | < 1000 nM | < 1000 nM | –
CC(C)c1cnnc(Nc2ccc3ncc(-c4cn(C)nc4Oc4ccccc4)cc3n2)c1 [Example 0820] | < 1000 nM | < 1000 nM | –
CC(C)c1cnnc(Nc2ccc3ncc(N4CCN(C)C(=O)C4)cc3n2)c1 [Example 0887] | < 1000 nM | 1000 to 10000 nM | –
CC(C)c1cnnc(Nc2ccc3ncc(-c4cc(-c5ccccn5)nn4C)cc3n2)c1 [Example 0837, N-(5-isopropylpyridazin-3-yl)-7-(1-methyl-3-(pyridin-2-yl)-1H-pyrazol-5-yl)-1,5-naphthyridine-2-amine] | 1000 to 10000 nM | < 1000 nM | –
CC(C)c1cnnc(Nc2ccc3ncc(-c4cnn(CC(F)(F)CN5CCOCC5)c4)cc3n2)c1 [Example 0731] | < 1000 nM | < 1000 nM | –
CC(C)c1cnnc(Nc2ccc3ncc(NC4COC4)cc3n2)c1 [Example 0904] | < 1000 nM | – | 1000 to 10000 nM
COC[C@@H]1CCCN1c1cnc2ccc(Nc3cc(C(C)C)cnn3)nc2c1 [Example 0874] | < 1000 nM | < 1000 nM | –
CC(C)c1cnnc(Nc2ccc3ncc(N(C)C)cc3n2)c1 [Example 0627, N^2-(5-isopropylpyridazin-3-yl)-N^7,N^7-dimethyl-1,5-naphthyridine-2,7-diamine] | 1000 to 10000 nM | < 1000 nM | –
CC(C)c1cnnc(Nc2ccc3ncc(-c4scnc4-c4cccnc4)cc3n2)c1 [Example 0578] | < 1000 nM | < 1000 nM | –
CCC(CC)c1cnnc(Nc2ccc3ncc(-c4cnn(CCOC5CNC5)c4)cc3n2)c1 [Example 0816] | < 1000 nM | < 1000 nM | –
CC(C)c1cnnc(Nc2ccc3ncc(NC4CCC4)cc3n2)c1 [Example 0879] | < 1000 nM | < 1000 nM | –
CC(=O)NCCc1cn(-c2cnc3ccc(Nc4cc(C(C)C)cnn4)nc3c2)cn1 [Example 0504, N-(2-(1-(6-((5-isopropylpyridazin-3-yl)amino)-1,5-naphthyridin-3-yl)-1H-imidazol-4-yl)ethyl)acetamide] | < 1000 nM | < 1000 nM | –
CC(C)c1cnnc(Nc2ccc3ncc(-c4cnn(CCN5CC(O)C5)c4)cc3n2)c1 [Example 0612] | < 1000 nM | < 1000 nM | –
CO[C@H]1CCC[C@@H]1Nc1cnc2ccc(Nc3cc(C(C)C)cnn3)nc2c1 [Example 0894] | < 1000 nM | 1000 to 10000 nM | –
CC(C)c1cnnc(Nc2ccc3ncc(-c4cnccn4)cc3n2)c1 [Example 0606] | 1000 to 10000 nM | < 1000 nM | –
CC(C)c1cnnc(Nc2ccc3ncc(C4=CCN(C(=O)OC(C)(C)C)CC4)cc3n2)c1 [Example 0880, tert-butyl 4-(6-((5-isopropylpyridazin-3-yl)amino)-1,5-naphthyridin-3-yl)-5,6-dihydropyridine-1(2H)-carboxylate] | < 1000 nM | < 1000 nM | –
Cc1ccnnc1Nc1ccc2ncc(-c3cnn(C)c3)cc2n1 [Example 0489] | 10000 to 50000 nM | 1000 to 10000 nM | –
Cc1nn(C)nc1-c1cnc2ccc(Nc3cc(C(C)C)cnn3)nc2c1 [Example 0720, 7-(2,5-Dimethyl-2H-1,2,3-triazol-4-yl)-N-(5-isopropylpyridazin-3-yl)-1,5-naphthyridine-2-amine] | < 1000 nM | < 1000 nM | –
CC(C)c1cnnc(Nc2ccc3ncc(-c4cnn(CC5CCNCC5)c4)cc3n2)c1 [Example 0485, trifluoroacetic acid salt of N-(5-isopropylpyridazin-3-yl)-7-(1-(piperidin-4-ylmethyl)-1H-pyrazol-4-yl)-1,5-naphthyridine-2-amine] | < 1000 nM | < 1000 nM | –
CC(C)c1cnnc(Nc2ccc3ncc(-c4ccnc(N)c4)cc3n2)c1 [Example 0602, 7-(2-aminopyridin-4-yl)-N-(5-isopropylpyridazin-3-yl)-1,5-naphthyridine-2-amine] | < 1000 nM | < 1000 nM | –
CC(C)c1cnnc(Nc2ccc3ncc(-c4cn(C)nc4NC4COC4)cc3n2)c1 [Example 0831] | < 1000 nM | < 1000 nM | –
CC(C)c1cnnc(Nc2ccc3ncc(-c4cn(C)nc4N4CC5(CCO5)C4)cc3n2)c1 [Example 0941] | < 1000 nM | – | < 1000 nM
Cc1nn(C)c(C)c1-c1cnc2ccc(Nc3cc(C(C)C)cnn3)nc2c1 [Example 0624, N-(5-isopropylpyridazin-3-yl)-7-(1,3,5-trimethyl-1H-pyrazol-4-yl)-1,5-naphthyridine-2-amine] | 1000 to 10000 nM | < 1000 nM | –

The next lines start with the values.

IC50 [1] | IC50 ([2]; ERK2 enzyme assay (2)) | IC50 [2] | SMILES
< 1000 nM | < 1000 nM | – | CC(C)c1cnnc(Nc2ccc3ncc(-c4cnn(CC5CCN(C(=O)N6CCCCC6)CC5)c4)cc3n2)c1 [Example 0533]
< 1000 nM | < 1000 nM | – | CC(C)c1cnnc(Nc2ccc3ncc(-c4cnn(Cc5ccc(N)nc5)c4)cc3n2)c1 [Example 0464]
< 1000 nM | < 1000 nM | – | CC(C)c1cnnc(Nc2ccc3ncc(N4C[C@@H](C)O[C@@H](C)C4)cc3n2)c1 [Example 0873]
< 1000 nM | < 1000 nM | – | CC(C)c1cnnc(Nc2ccc3ncc(N4CCC(F)(F)C4)cc3n2)c1 [Example 0893]
< 1000 nM | < 1000 nM | – | CC(C)c1cnnc(Nc2ccc3ncc(-c4cnn(CCCN5CC(OCC6CC6)C5)c4)cc3n2)c1 [Example 0709]
< 1000 nM | < 1000 nM | – | C=C(C)c1cnnc(Nc2ccc3ncc(-c4cn(C)nc4C)cc3n2)c1 [Example 0785]
< 1000 nM | < 1000 nM | – | CC(C)c1cnnc(Nc2ccc3ncc(-c4cn(C)nc4-c4cncnc4)cc3n2)c1 [Example 0553]
< 1000 nM | < 1000 nM | – | CC(C)c1cnnc(Nc2ccc3ncc(-c4cnn(CC5CCN(C(=O)N6CCOCC6)CC5)c4)cc3n2)c1 [Example 0532]
< 1000 nM | < 1000 nM | – | CC(C)c1cnnc(Nc2ccc3ncc(-c4cnn(CCF)c4)cc3n2)c1 [Example 0466]
< 1000 nM | – | < 1000 nM | COCc1cnnc(Nc2ccc3ncc(-c4cn(C)nc4C)cc3n2)c1 [Example 0923]
< 1000 nM | < 1000 nM | – | Cc1ccc(S(=O)(=O)NC2CN(CCCn3cc(-c4cnc5ccc(Nc6cc(C(C)C)cnn6)nc5c4)cn3)C2)cc1 [Example 0701]
< 1000 nM | < 1000 nM | – | CC(C)c1cnnc(Nc2ccc3ncc(-c4ccc(=O)n(C)c4)cc3n2)c1 [Example 0594, 5-(6-((5-isopropylpyridazin-3-yl)amino)-1,5-naphthyridin-3-yl)-1-methylpyridin-2(1H)-one]
< 1000 nM | < 1000 nM | – | CC(C)c1cnnc(Nc2ccc3ncc(-c4cn(C)nc4-c4ccnc(N)c4)cc3n2)c1 [Example 0752, 7-(3-(2-aminopyridin-4-yl)-1-methyl-1H-pyrazol-4-yl)-N-(5-isopropylpyridazin-3-yl)-1,5-naphthyridine-2-amine]
< 1000 nM | < 1000 nM | – | Cc1nn(C)cc1-c1cnc2ccc(Nc3cc(CC4CCCCC4)cnn3)nc2c1 [Example 0789]
< 1000 nM | < 1000 nM | – | CC(C)C(=O)N1CCC(Cn2cc(-c3cnc4ccc(Nc5cc(C(C)C)cnn5)nc4c3)cn2)CC1 [Example 0536]
< 1000 nM | < 1000 nM | – | CC(C)c1cnnc(Nc2ccc3ncc(-c4cnn(CCCN5CC(OCC(F)F)C5)c4)cc3n2)c1 [Example 0714]
< 1000 nM | < 1000 nM | – | CCCN(CCC)c1cnnc(Nc2ccc3ncc(-c4cnn(C)c4)cc3n2)c1 [Example 0523]
< 1000 nM | < 1000 nM | – | CC(C)c1cnnc(Nc2ccc3ncc(-c4cnn(CCOC5CN(C(C)C)C5)c4)cc3n2)c1 [Example 0742]
< 1000 nM | < 1000 nM | – | COCC(C)c1cnnc(Nc2ccc3ncc(-c4cn(C)nc4C)cc3n2)c1 (centres unmarked) [Example 0786, 7-(1,3-dimethyl-1H-pyrazol-4-yl)-N-(5-(1-methoxypropan-2-yl)pyridazin-3-yl)-1,5-naphthyridine-2-amine]
